The source made the active and inactive calls. How the calls were made is not given here.
Biological target: RanGTP-importin-beta complex (human Ran / KPNB1)
Assay: Ran–importin-beta interaction inhibitors, confirmation, biochemical, FRET, CFP/YFP, cell-free homogeneous (AID 2823)
Conditions: CFP-Ran/YFP-importin-beta FRET ratio

For `COc1ccc(Cl)cc1S(=O)(=O)Nc1noc2ccccc12`, the IC50 was > 50 µM (inactive).

With `Cc1ccc(-c2ccc(/C=C(\C#N)C(N)=S)n2C)cc1` the IC50 was > 50 µM (inactive).

For `O=C(Nc1ccc(OC(F)(F)F)cc1)c1ccc2nc[nH]c2c1`, the IC50 was > 50 µM (inactive).

For `CC(C)CCNC(=O)C(c1ccco1)N(Cc1ccc(F)cc1)C(=O)c1snc(C(N)=O)c1N` (stereo not given), the IC50 was > 50 µM (inactive).

In the case of `COc1ccc(Cn2c(O)c(C=Nc3ccc(OC)cc3)c3ccccc3c2=O)cc1`, the IC50 is reported as > 50 µM (inactive).

In the case of `COc1cc2c(cc1OC)CN(Cc1ccccc1)CC2`, the IC50 is reported as > 50 µM (inactive).

With `CCOc1ccc(C(=O)c2cc3ccc(O)cc3oc2=O)cc1` the IC50 was 9.4 µM.

`NS(=O)(=O)c1ccc(CCNC(=O)C(=O)c2c[nH]c3ccccc23)cc1` was tested, and the IC50 was > 50 µM (inactive).

For `COc1cc(C(=O)Oc2c(CN3CCOCC3)cc(Cl)c3cccnc23)cc(OC)c1OC`, the IC50 was > 50 µM (inactive).

For `CCN1C2=C(C(=O)CCC2)C(c2ccc(O)c(Br)c2)C2=C1CCCC2=O`, the IC50 was 7.86 µM.

In the case of `COc1cc2c(cc1OC)CN(Cc1cc(=O)oc3cc(C)c(Cl)cc13)CC2`, the IC50 is reported as > 50 µM (inactive).

With `Clc1ccc(-c2ncc3ccccn23)cc1` the IC50 was > 50 µM (inactive).

In the case of `CC(OC(=O)CNC(=O)c1cccc(F)c1)C(=O)NC1CCCCC1C` (stereo not given), the IC50 is reported as > 50 µM (inactive).

With `COCC(=O)Nc1nnc(COc2ccc(Cl)cc2)s1` the IC50 was > 50 µM (inactive).

In the case of `CCOC(=O)C1(CCc2ccccc2)CCN(Cc2ccccn2)CC1`, the IC50 is reported as > 50 µM (inactive).

For `CC12OC1C1(O)CCCC1=CC2=O` (stereo not given), the IC50 was > 50 µM (inactive).

Compound `Cc1c(Br)c(=O)oc2c(Br)c(O)c(O)cc12` has an IC50 of 26.3 µM.

For `CCN(CC)S(=O)(=O)c1ccc(NC(=O)c2ccc(Sc3nncn3C)c([N+](=O)[O-])c2)cc1`, the IC50 was > 50 µM (inactive).

For `CC(=O)O[C@H]1CCC2C3CCC4=CC(=O)CCC4=C3C=C[C@@]21C` (stereo not given in full), the IC50 was > 50 µM (inactive).

For `Cc1ccc(C2=CC(c3ccccc3)n3ncnc3N2)c(C)c1` (stereo not given), the IC50 was > 50 µM (inactive).

Work on `Cc1cc2c(c(=O)n1CC1CCCO1)C(c1ccco1)C(C#N)=C(N)O2` (stereo not given) yielded an IC50 of 20.9 µM.

Work on `Cc1ccc2cc(C#N)c(N3CCCN(S(=O)(=O)c4ccc(F)cc4)CC3)nc2c1` yielded an IC50 of 31.6 µM.

With `O=c1nc(-c2ccccc2Cl)c2cc(F)ccc2[nH]1` the IC50 was > 50 µM (inactive).

`COC(=O)Cc1c(C)c2cc(Cl)c(OC(=O)c3ccco3)cc2oc1=O` showed an IC50 of 14.2 µM.

With `C/C(=N\NC(=S)NCc1ccccc1)c1cccc(Br)c1` the IC50 was > 50 µM (inactive).

For `COc1ccccc1Nc1c2ccccc2nc2ccccc12`, the IC50 was > 50 µM (inactive).

For `CCN1CCc2c(sc(NC(=O)C3CCCCC3)c2C(=O)OC)C1`, the IC50 was > 50 µM (inactive).

With `Fc1ccccc1N1CC(c2ccccc2)C(c2cccs2)=N1` (stereo not given) the IC50 was 20.8 µM.

In the case of `O=c1cc(N2CCC3(CC2)OCCO3)[nH]c(=O)n1-c1ccc(Br)cc1`, the IC50 is reported as > 50 µM (inactive).

`CCCN1CC(O)=C(C#N)C1=O` was tested, and the IC50 was > 50 µM (inactive).

`Oc1cccc(/C=N/Nc2cc(N3CCCC3)nc(N3CCCC3)n2)c1` was tested, and the IC50 was > 50 µM (inactive).

For `COc1ccc(CCNc2nc3ccccc3n3nnnc23)cc1OC`, the IC50 was 40.1 µM.

`O=C1NC(=O)N(Cc2ccccc2)C(=O)/C1=C/N1CCCc2ccccc21` was tested, and the IC50 was > 50 µM (inactive).

For `COc1ccc(C(=O)O)cc1S(=O)(=O)N(C)C`, the IC50 was > 50 µM (inactive).

For `Cc1nn(-c2ccccc2)c2sc(C(=O)NC3CCCCC3)cc12`, the IC50 was > 50 µM (inactive).

With `N#CC1=C(N)Oc2cc3c(cc2C1c1ccc(Cl)cc1)OCO3` (stereo not given) the IC50 was > 50 µM (inactive).

In the case of `Cc1cccc(N2C(=O)/C(=C/c3cccnc3)SC2=S)c1`, the IC50 is reported as > 50 µM (inactive).

`CCOC(=O)CSc1nnc(CSc2nc3sc4c(c3c(=O)[nH]2)CCCC4)n1-c1ccccc1` was tested, and the IC50 was > 50 µM (inactive).

Work on `COc1cc(/C(O)=C(\C#N)c2nc3ccccc3[nH]2)cc(OC)c1OC` yielded an IC50 of 15.5 µM.

With `Cc1ccc(C(=O)NNc2c3ccccc3nc3ccccc23)cc1` the IC50 was > 50 µM (inactive).

`Cc1cc(C)c(C2=CC(c3ccccc3)n3ncnc3N2)cc1C` (stereo not given) was tested, and the IC50 was 38.5 µM.

With `CCn1c(=O)cc(N2CCC3(CC2)OCCO3)[nH]c1=O` the IC50 was > 50 µM (inactive).

For `Cc1cc2c(c(=O)n1Cc1cccnc1)C(Cc1ccccc1)C(C#N)=C(N)O2` (stereo not given), the IC50 was > 50 µM (inactive).

For `COc1ccc(C(=O)Oc2c(CN3CCOCC3)cc(Cl)c3cccnc23)cc1`, the IC50 was > 50 µM (inactive).

`c1c2c(cc3sc(N4CCOCC4)nc13)OCCO2` was tested, and the IC50 was > 50 µM (inactive).

For `Cc1sc(NC(=O)c2ccccc2)c(C#N)c1-c1ccccc1`, the IC50 was > 50 µM (inactive).

`O=C(O)C1CCCC2CN3CCc4c([nH]c5ccccc45)C3C(O)C21` (stereo not given) was tested, and the IC50 was > 50 µM (inactive).

`CCCc1cc(=O)oc2c(CN3CCN(C)CC3)c(O)c(Cl)cc12` was tested, and the IC50 was 28.4 µM.

With `COC(=O)c1cc(NC(=O)c2ccc([N+](=O)[O-])cc2)c(=O)oc1C` the IC50 was > 50 µM (inactive).

Work on `CN(C)CCCn1c(N)c(C#N)c2nc(C#N)c(C#N)nc21` yielded an IC50 of 21.9 µM.

With `CCOC(=O)N1CCN(c2cc(=O)n(-c3ccccc3C)c(=O)[nH]2)CC1` the IC50 was > 50 µM (inactive).

For `OCC1(Cc2cccc(Cl)c2)CCCN(Cc2ccc3cc(F)ccc3n2)C1` (stereo not given), the IC50 was > 50 µM (inactive).

In the case of `Cc1ccc(C)c(NC(=S)N(C)CCc2ccccn2)c1`, the IC50 is reported as > 50 µM (inactive).

In the case of `COc1ccccc1C(=O)c1cc2ccc(O)cc2oc1=O`, the IC50 is reported as 5.1 µM.

For `Nc1ccc(C2(c3ccc(N)cc3)CN3CCC2CC3)cc1`, the IC50 was > 50 µM (inactive).

With `CC1(C)CNC(=O)C=C(c2ccccc2)C1` the IC50 was > 50 µM (inactive).

`CCN1CCc2c(sc(N)c2C#N)C1` showed an IC50 of 16.5 µM.

`Cc1ccc(S(=O)(=O)NCCc2cn3nc(C)c(C)nc3n2)cc1C` was tested, and the IC50 was 33.3 µM.

Work on `COc1ccc2cc(C(C)=O)c(=O)oc2c1` yielded an IC50 of 32.2 µM.

For `COc1cc(/C=C(\C#N)C(=O)Nc2cccc3ncccc23)cc(OC)c1OC`, the IC50 was > 50 µM (inactive).

With `C=CCN1C=CC(=CC=C(C#N)C#N)C=C1` the IC50 was 29.1 µM.

`Cc1c(OC(=O)N(C)C)ccc2c1O/C(=C\c1ccco1)C2=O` showed an IC50 of 12.5 µM.

Compound `COC(=O)C1=C(C)NC2=C(C(=O)CCC2)C1c1cccc(C)n1` (stereo not given) has an IC50 of 25.5 µM.

With `Cc1cc(/C=c2/sc3nc4ccccc4n3c2=O)c(C)n1-c1ccccn1` the IC50 was > 50 µM (inactive).

In the case of `Cc1sc2nc(COC(=O)Cc3ccccc3)[nH]c(=O)c2c1C`, the IC50 is reported as > 50 µM (inactive).

In the case of `CC1=Nc2ccccc2/C1=C\c1nc(-c2ccc(F)cc2)oc1O`, the IC50 is reported as > 50 µM (inactive).

In the case of `COc1ccc(-c2ccc(-c3noc(-c4ccccc4C)n3)c(OC)n2)cc1`, the IC50 is reported as > 50 µM (inactive).

`COc1ccccc1CNC(=O)Cn1ccsc1=N` was tested, and the IC50 was > 50 µM (inactive).

With `CC(C)Cc1nn2c(N)c(/C=C3\C=Nc4ccccc43)c(=O)nc2s1` the IC50 was > 50 µM (inactive).

In the case of `CCN(CC(=O)Nc1cccc(S(=O)(=O)N2CCCCC2)c1)Cc1ccccc1`, the IC50 is reported as > 50 µM (inactive).

In the case of `COc1ccc(-n2c(C)cc(/C=C3/SC(=S)N(C)C3=O)c2C)cc1`, the IC50 is reported as > 50 µM (inactive).

For `CC1(C)CC(=O)NC=C(c2ccccc2)C1`, the IC50 was > 50 µM (inactive).

In the case of `Cc1cc(C(=O)N/N=C2\CC(=O)CC(C)(C)C2)n[nH]1`, the IC50 is reported as > 50 µM (inactive).

`COC(=O)C1=C(C)NC(C)=C(C(=O)OC)C1C(=O)OC(C)C(=O)c1ccccc1` (stereo not given) was tested, and the IC50 was > 50 µM (inactive).

For `CNS(=O)(=O)c1cc(OC)c(OC)cc1CC(=O)OC`, the IC50 was > 50 µM (inactive).

In the case of `Cc1cccc(Oc2nc(-c3cccc([N+](=O)[O-])c3)nc3ccccc23)c1C`, the IC50 is reported as > 50 µM (inactive).

With `Cc1ccc(S(=O)(=O)N2CCCN(c3nc4cc(C)ccc4cc3C#N)CC2)cc1` the IC50 was 29.8 µM.

`CCCCn1c(N)c(N(CCOC)C(=O)CN2c3ccccc3CC2C)c(=O)[nH]c1=O` (stereo not given) was tested, and the IC50 was > 50 µM (inactive).

In the case of `Cc1ccc(Nc2cc(C)nn2-c2nc(C)cc(C)n2)cc1`, the IC50 is reported as > 50 µM (inactive).

In the case of `CCN1CCc2c(sc(NC(=O)Cc3ccccc3)c2C(=O)OC)C1`, the IC50 is reported as > 50 µM (inactive).

`CN(C)/C=N/c1nc2nccc(-c3cccs3)n2n1` showed an IC50 of 38.5 µM.

In the case of `CC1CC(C)CN(c2cc(=O)n(Cc3ccc(F)cc3)c(=O)[nH]2)C1` (stereo not given), the IC50 is reported as > 50 µM (inactive).

`CN(C)CCCN(C(=O)c1ccc(Br)s1)c1nc2cc3c(cc2s1)OCCO3` was tested, and the IC50 was > 50 µM (inactive).

With `CCOC(=O)C1=C(N)Oc2ccc3ccccc3c2C1c1ccc(O)c(OC)c1` (stereo not given) the IC50 was > 50 µM (inactive).

For `c1cncc(Nc2c3ccccc3nc3ccccc23)c1`, the IC50 was > 50 µM (inactive).

For `Cn1c(=O)c2c(ncn2CCOc2ccc(F)cc2)n(C)c1=O`, the IC50 was > 50 µM (inactive).

In the case of `O=C1NC(=O)N(Cc2ccccc2)C(=O)/C1=C\N1CCCc2ccccc21`, the IC50 is reported as > 50 µM (inactive).

In the case of `CN(C)C=NC(=O)c1cc(C(=O)c2ccc(C(C)(C)C)cc2)c[nH]1`, the IC50 is reported as > 50 µM (inactive).

For `Cc1c(C#N)c(NC(=O)CCl)n(Cc2ccccc2)c1C`, the IC50 was > 50 µM (inactive).

In the case of `COCCn1c(N)c(C(=O)OCc2ccccc2)c2nc3ccccc3nc21`, the IC50 is reported as 46.2 µM.

Compound `CCCn1c(O)c(C=Nc2ccccc2)sc1=S` has an IC50 of 39.4 µM.

`CNC(=O)c1c(C)[nH]c(=S)c(C#N)c1-c1ccco1` was tested, and the IC50 was > 50 µM (inactive).

For `COc1ccc(NS(=O)(=O)c2cc(NC(=O)c3cccs3)ccc2N2CCOCC2)cc1`, the IC50 was > 50 µM (inactive).

For `Cn1cnc(S(=O)(=O)N2CCN(c3ccc(Cl)cc3)CC2)c1`, the IC50 was > 50 µM (inactive).

`CN1CCCN(Cc2cccc3ccccc23)CC1` was tested, and the IC50 was > 50 µM (inactive).

With `Cc1ccc(-c2nc3cc(N)ccc3o2)cc1` the IC50 was > 50 µM (inactive).

For `O=C(O)c1ccccc1C(=O)Nc1ccc(Br)c2cccnc12`, the IC50 was > 50 µM (inactive).

For `COc1ccc(OC(=O)C2CC(=O)N(c3ccc(C)cc3)C2)cc1` (stereo not given), the IC50 was > 50 µM (inactive).

For `CCOc1ccc(N=Cc2c(O)n(-c3cccc(C)n3)c(=O)c3ccccc23)cc1`, the IC50 was > 26 µM (inactive).

With `CCCCNC(=O)c1c(N)n(Cc2ccc3c(c2)OCO3)c2nc3ccccc3nc12` the IC50 was 4.95 µM.

Work on `O=C1NC(=S)S/C1=C1\Sc2ccccc2N1CCCS(=O)(=O)O` yielded an IC50 of 12.5 µM.

For `O=C(Nc1cccc(OC(=O)N2CCCCC2)c1)N1CCCCC1`, the IC50 was > 50 µM (inactive).

`COCCN1C=C(C(=O)OC)C(c2cc(Br)c(OC)c(OC)c2)C(C(=O)OC)=C1` was tested, and the IC50 was 21.4 µM.

With `Cc1ccc(C(=O)Nc2ncc(Cc3ccc(F)cc3)s2)o1` the IC50 was > 50 µM (inactive).

`Oc1ccc(/C=N/Nc2ccc3ccccc3c2)c(O)c1` was tested, and the IC50 was > 50 µM (inactive).

Reference: PubChem BioAssay AID2823 (Broad Institute, 2010)
